Source: patent US20120239131A1, “METHODS AND APPARATUS FOR TREATMENT OF ANEURYSMAL TISSUE” (Medtronic Vascular, Inc., priority 2011, published 2012)

How the values were obtained:
ACE = ACE (Homo sapiens, UniProt P12821); conditions: in vitro; cited from earlier work
[1] = cited from earlier work
CXCR4 = assay: Aortic mural gene expression, RT-PCR (TLDA); format: in vivo, ApoE−/− mice; conditions: fold change over ApoE−/− control; aorta, 28 days Ang II infusion
Protocol: (§1) ApoE−/− mice used in this study were divided into different pretreatment groups: 1) Fluvastatin-MF; 2) Doxycycline-MD; 3) Irbesartan-MI; 4) Telmisartan-MT; 5) Control (water) and fed medicated chow or medicated drinking water 1 week prior to pump implantation. AngII (1000 ng·kg^−1 of body weight·min^−1) was infused subcutaneously via Alzet mini-osmotic pumps for 28 days. All mice were maintained on the medicated chow (MI & MT) or medicated drinking water (MF & MD) treatments which were delivered daily for a total of 28 days following pump implantation.
(§2) In order to determine the effect of the various treatments on the progressive enlargement of the experimental AAAs the mice were followed with high frequency trans-abdominal ultrasound. Maximum aortic diameter was measured and recorded prior to pump implantation and then at 3, 7, 14, 21, and 28 days. All mice were sacrificed 28 days after pump implantation. Aortae were harvested and subjected to either histological analysis (Elastic Masson trichome, MAC2, CD31 and TUNEL staining) and analysis of mural gene expression. Plasma drug concentrations of experimental compounds were quantified on the day of sacrifice using high performance liquid chromatography (HPLC).
(§3) Total RNA was extracted from homogenized aortas using the Qiazol lysis reagent and RNeasy Lipid Tissue Mini kit. DNAse treatment was included in the procedure. RNA concentration was determined utilizing the Quant iT RNA assay kit. Complimentary deoxyribonucleic acid (cDNA) was synthesized from 1 μg RNA using High reverse cDNA transcription kit. Briefly the reaction tubes containing RNA, reverse transcriptase, buffer, RNAse inhibitor, and nuclease free water were incubated at 25° C. for 10 minutes to allow annealing. Reverse transcription was performed at 37° C. for 120 min, followed by a 5 sec incubation at 85° C. to inactivate the reverse transcriptase enzyme. The cDNA samples were cooled at 4° C. and stored at −80° C. until further use.
(§4) Real time PCR was performed using a 384-well Taqman low density array (TLDA) card. Each sample specific PCR mix contained 50 ng of total RNA converted to cDNA. The PCR reaction for Taqman assays contained 50 μl Master Mix (Taqman Universal PCR Master Mix,) and 50 ul of cDNA and RNAase free water. Assays were performed to include appropriate controls (no template control). The RT-PCR protocol included an initial step of 50° C. (2 minutes) […], denaturation by a hot start at 95° C. for 10 min, followed by 40 cycles of a 2 step program (denaturation at 95° C. for 15 secs for primer annealing/extension at 60° C. for 1 min). Fluorescence data was collected at 60° C. Fluorescence was quantified with ABI PRISM 7900HT Sequence Detection System. To verify amplification of a specific target cDNA, data generated was analyzed using SDS 2.2.3 software (Sequence Detection System Software, Applied Biosystems). For all amplification plots, the baseline data were set with the automatic CT function available with SDS 2.2.3 calculating the optimal baseline range and threshold value by using the AutoCT algorithm. According to the manufacturer's instruction, a CT value of ≧39 corresponds to nonspecific amplification marking the limits of detection. For endogenous control GAPDH was normalized to B2M. For relative quantification (RQ), pooled ApoE−/− control was used as the calibrator (with expression equal to 1).

Vav1 = assay: Aortic mural gene expression, RT-PCR (TLDA); format: in vivo, ApoE−/− mice; conditions: fold change over ApoE−/− control; aorta, 28 days Ang II infusion
Protocol: as §1, §2, §3, §4

Cybb = assay: Aortic mural gene expression, RT-PCR (TLDA); format: in vivo, ApoE−/− mice; conditions: fold change over ApoE−/− control; aorta, 28 days Ang II infusion
Protocol: as §1, §2, §3, §4

Cathepsin S = assay: Aortic mural gene expression, RT-PCR (TLDA); format: in vivo, ApoE−/− mice; conditions: fold change over ApoE−/− control; aorta, 28 days Ang II infusion
Protocol: as §1, §2, §3, §4

TIMP2 = assay: Aortic mural gene expression, RT-PCR (TLDA); format: in vivo, ApoE−/− mice; conditions: fold change over ApoE−/− control; aorta, 28 days Ang II infusion
Protocol: as §1, §2, §3, §4

CCR2 = assay: Aortic mural gene expression, RT-PCR (TLDA); format: in vivo, ApoE−/− mice; conditions: fold change over ApoE−/− control; aorta, 28 days Ang II infusion
Protocol: as §1, §2, §3, §4

MMP-8 = assay: Aortic mural gene expression, RT-PCR (TLDA); format: in vivo, ApoE−/− mice; conditions: fold change over ApoE−/− control; aorta, 28 days Ang II infusion
Protocol: as §1, §2, §3, §4

TNF-α = assay: Aortic mural gene expression, RT-PCR (TLDA); format: in vivo, ApoE−/− mice; conditions: fold change over ApoE−/− control; aorta, 28 days Ang II infusion
Protocol: as §1, §2, §3, §4

Osteopontin = assay: Aortic mural gene expression, RT-PCR (TLDA); format: in vivo, ApoE−/− mice; conditions: fold change over ApoE−/− control; aorta, 28 days Ang II infusion
Protocol: as §1, §2, §3, §4

CCR5 = assay: Aortic mural gene expression, RT-PCR (TLDA); format: in vivo, ApoE−/− mice; conditions: fold change over ApoE−/− control; aorta, 28 days Ang II infusion
Protocol: as §1, §2, §3, §4

LOX = assay: Aortic mural gene expression, RT-PCR (TLDA); format: in vivo, ApoE−/− mice; conditions: fold change over ApoE−/− control; aorta, 28 days Ang II infusion
Protocol: as §1, §2, §3, §4

Runx3 = assay: Aortic mural gene expression, RT-PCR (TLDA); format: in vivo, ApoE−/− mice; conditions: fold change over ApoE−/− control; aorta, 28 days Ang II infusion
Protocol: as §1, §2, §3, §4

ITGAL = assay: Aortic mural gene expression, RT-PCR (TLDA); format: in vivo, ApoE−/− mice; conditions: fold change over ApoE−/− control; aorta, 28 days Ang II infusion
Protocol: as §1, §2, §3, §4

MMP-12 = assay: Aortic mural gene expression, RT-PCR (TLDA); format: in vivo, ApoE−/− mice; conditions: fold change over ApoE−/− control; aorta, 28 days Ang II infusion
Protocol: as §1, §2, §3, §4

Fibronectin -1 = assay: Aortic mural gene expression, RT-PCR (TLDA); format: in vivo, ApoE−/− mice; conditions: fold change over ApoE−/− control; aorta, 28 days Ang II infusion
Protocol: as §1, §2, §3, §4

Tgfβ1 = assay: Aortic mural gene expression, RT-PCR (TLDA); format: in vivo, ApoE−/− mice; conditions: fold change over ApoE−/− control; aorta, 28 days Ang II infusion
Protocol: as §1, §2, §3, §4

Cathepsin B = assay: Aortic mural gene expression, RT-PCR (TLDA); format: in vivo, ApoE−/− mice; conditions: fold change over ApoE−/− control; aorta, 28 days Ang II infusion
Protocol: as §1, §2, §3, §4

Rac2 = assay: Aortic mural gene expression, RT-PCR (TLDA); format: in vivo, ApoE−/− mice; conditions: fold change over ApoE−/− control; aorta, 28 days Ang II infusion
Protocol: as §1, §2, §3, §4

CCL2 = assay: Aortic mural gene expression, RT-PCR (TLDA); format: in vivo, ApoE−/− mice; conditions: fold change over ApoE−/− control; aorta, 28 days Ang II infusion
Protocol: as §1, §2, §3, §4

MAPK8 = assay: Aortic mural gene expression, RT-PCR (TLDA); format: in vivo, ApoE−/− mice; conditions: fold change over ApoE−/− control; aorta, 28 days Ang II infusion
Protocol: as §1, §2, §3, §4

HMOX 1 = assay: Aortic mural gene expression, RT-PCR (TLDA); format: in vivo, ApoE−/− mice; conditions: fold change over ApoE−/− control; aorta, 28 days Ang II infusion
Protocol: as §1, §2, §3, §4

IL-7 = assay: Aortic mural gene expression, RT-PCR (TLDA); format: in vivo, ApoE−/− mice; conditions: fold change over ApoE−/− control; aorta, 28 days Ang II infusion
Protocol: as §1, §2, §3, §4

ITGB2 = assay: Aortic mural gene expression, RT-PCR (TLDA); format: in vivo, ApoE−/− mice; conditions: fold change over ApoE−/− control; aorta, 28 days Ang II infusion
Protocol: as §1, §2, §3, §4

CSF1 = assay: Aortic mural gene expression, RT-PCR (TLDA); format: in vivo, ApoE−/− mice; conditions: fold change over ApoE−/− control; aorta, 28 days Ang II infusion
Protocol: (§5) Total RNA was extracted from homogenized aortas using the Qiazol lysis reagent and RNeasy Lipid Tissue Mini kit. DNAse treatment was included in the procedure. RNA concentration was determined utilizing the Quant iT RNA assay kit. Complimentary deoxyribonucleic acid (cDNA) was synthesized from 1 μg RNA using High reverse cDNA transcription kit. Briefly the reaction tubes containing RNA, reverse transcriptase, buffer, RNAse inhibitor, and nuclease free water were incubated at 25° C. for 10 minutes to allow annealing. […] The cDNA samples were cooled at 4° C. and stored at −80° C. until further use.
(§6) Real time PCR was performed using a 384-well Taqman low density array (TLDA) card. Each sample specific PCR mix contained 50 ng of total RNA converted to cDNA. The PCR reaction for Taqman assays contained 50 μl Master Mix (Taqman Universal PCR Master Mix,) and 50 ul of cDNA and RNAase free water. Assays were performed to include appropriate controls (no template control). The RT-PCR protocol included an initial step of 50° C. […] Fluorescence data was collected at 60° C. Fluorescence was quantified with ABI PRISM 7900HT Sequence Detection System. To verify amplification of a specific target cDNA, data generated was analyzed using SDS 2.2.3 software (Sequence Detection System Software, Applied Biosystems). […] For relative quantification (RQ), pooled ApoE−/− control was used as the calibrator (with expression equal to 1).

NFKb1 = assay: Aortic mural gene expression, RT-PCR (TLDA); format: in vivo, ApoE−/− mice; conditions: fold change over ApoE−/− control; aorta, 28 days Ang II infusion
Protocol: as §5, §6

[2] = test system: genes involved in the pathophysiology of AAA; assay: Drug inhibition effect on differentially expressed genes, overall; format: in vivo, ApoE−/− mice; conditions: sum of heat map grades over 25 genes; ApoE−/− + Ang II group scored 55
Protocol: as §1, §2, §3, §4

[3] = cited from earlier work; remark: listed apart in the source

ACE, sequence (P12821 30-1306, species assumed): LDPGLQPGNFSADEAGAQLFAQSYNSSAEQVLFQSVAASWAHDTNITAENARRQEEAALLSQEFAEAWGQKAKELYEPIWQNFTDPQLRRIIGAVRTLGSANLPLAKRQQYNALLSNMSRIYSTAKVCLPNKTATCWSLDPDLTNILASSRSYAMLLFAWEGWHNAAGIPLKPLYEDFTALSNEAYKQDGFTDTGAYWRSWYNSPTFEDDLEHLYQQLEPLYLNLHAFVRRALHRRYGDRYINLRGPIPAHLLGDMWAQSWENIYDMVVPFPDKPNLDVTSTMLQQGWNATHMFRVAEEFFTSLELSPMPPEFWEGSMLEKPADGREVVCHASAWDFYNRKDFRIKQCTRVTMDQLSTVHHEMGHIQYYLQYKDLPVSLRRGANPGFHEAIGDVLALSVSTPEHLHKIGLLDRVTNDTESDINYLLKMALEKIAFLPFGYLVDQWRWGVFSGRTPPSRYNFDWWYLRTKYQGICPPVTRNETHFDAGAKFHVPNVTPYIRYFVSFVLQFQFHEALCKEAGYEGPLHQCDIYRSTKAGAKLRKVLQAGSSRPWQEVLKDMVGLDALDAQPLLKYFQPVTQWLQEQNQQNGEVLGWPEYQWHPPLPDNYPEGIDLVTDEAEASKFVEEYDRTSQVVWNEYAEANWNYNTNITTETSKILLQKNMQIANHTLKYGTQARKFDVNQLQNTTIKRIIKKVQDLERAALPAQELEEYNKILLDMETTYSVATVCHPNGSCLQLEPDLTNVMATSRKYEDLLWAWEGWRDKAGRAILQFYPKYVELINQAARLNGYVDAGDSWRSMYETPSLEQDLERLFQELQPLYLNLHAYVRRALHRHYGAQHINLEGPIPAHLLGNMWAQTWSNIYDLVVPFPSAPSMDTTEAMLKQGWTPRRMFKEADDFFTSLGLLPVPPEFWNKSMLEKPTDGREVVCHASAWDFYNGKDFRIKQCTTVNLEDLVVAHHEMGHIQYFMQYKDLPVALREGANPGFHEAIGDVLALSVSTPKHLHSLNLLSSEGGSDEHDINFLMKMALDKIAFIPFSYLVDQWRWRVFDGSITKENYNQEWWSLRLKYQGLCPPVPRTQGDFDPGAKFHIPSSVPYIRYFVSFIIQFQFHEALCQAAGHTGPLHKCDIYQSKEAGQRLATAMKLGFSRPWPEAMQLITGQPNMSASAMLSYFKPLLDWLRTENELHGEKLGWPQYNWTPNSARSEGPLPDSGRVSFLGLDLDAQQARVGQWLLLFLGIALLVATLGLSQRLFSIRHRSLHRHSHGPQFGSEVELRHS

CCOC(=O)[C@H](CCc1ccccc1)N[C@@H](C)C(=O)N1CCC[C@H]1C(=O)O [enalapril]
ACE inhibitor potency (in words) (ACE): not highly active

CCOC(=O)[C@H](CCc1ccccc1)N[C@@H](C)C(=O)N1CC2(C[C@H]1C(=O)O)SCCS2 [spirapril]
Route of clearance/elimination ([1]; in vivo): balanced elimination by the liver and kidneys

C[C@H](CS)C(=O)N1CCC[C@H]1C(=O)O [Captopril, captopril]
Bioavailability ([1]; given orally): about 75%

C[C@H]1c2cccc(O)c2C(=O)C2=C(O)[C@]3(O)C(=O)C(C(N)=O)=C(O)[C@@H](N(C)C)[C@@H]3[C@@H](O)[C@@H]21 [Doxycycline]
CXCR4 expression (CXCR4): ++++ (>10.1 = ++++)
Vav1 expression (Vav1): ++ (1.51 to 3 = ++)
Cybb expression (Cybb): +++ (3.1 to 10 = +++)
Cathepsin S expression (Cathepsin S): +++ (3.1 to 10 = +++)
TIMP2 expression (TIMP2): − (0 to 1 = −)
CCR2 expression (CCR2): +++ (3.1 to 10 = +++)
MMP-8 expression (MMP-8): ++++ (>10.1 = ++++)
TNF-α expression (TNF-α): ++ (1.51 to 3 = ++)
Osteopontin expression (Osteopontin): ++++ (>10.1 = ++++)
CCR5 expression (CCR5): +++ (3.1 to 10 = +++)
LOX expression (LOX): − (0 to 1 = −)
Runx3 expression (Runx3): +++ (3.1 to 10 = +++)
ITGAL expression (ITGAL): +++ (3.1 to 10 = +++)
MMP-12 expression (MMP-12): ++++ (>10.1 = ++++)
Fibronectin -1 expression (Fibronectin -1): − (0 to 1 = −)
Tgfβ1 expression (Tgfβ1): +++ (3.1 to 10 = +++)
Cathepsin B expression (Cathepsin B): ++ (1.51 to 3 = ++)
Rac2 expression (Rac2): +++ (3.1 to 10 = +++)
CCL2 expression (CCL2): + (1.1 to 1.5 = +)
MAPK8 expression (MAPK8): − (0 to 1 = −)
HMOX 1 expression (HMOX 1): ++++ (>10.1 = ++++)
IL-7 expression (IL-7): − (0 to 1 = −)
ITGB2 expression (ITGB2): ++ (1.51 to 3 = ++)
CSF1 expression (CSF1): − (0 to 1 = −)
NFKb1 expression (NFKb1): − (0 to 1 = −)
Total Score [2]: 53

CCC(=O)O[C@@H](O[P@](=O)(CCCCc1ccccc1)CC(=O)N1C[C@H](C2CCCCC2)C[C@H]1C(=O)O)C(C)C [fosinopril]
Route of clearance/elimination ([1]; in vivo): balanced elimination by the liver and kidneys

O=C(O)c1cccnc1 [Niacin, nicotinic acid]
Water solubility [3]: water-soluble

NCCCC[C@H](N[C@@H](CCc1ccccc1)C(=O)O)C(=O)N1CCC[C@H]1C(=O)O [Lisinopril, lisinopril]
ACE inhibitor potency (in words) (ACE): slightly more potent ACE inhibitor than is enalaprilat
Time to peak concentrations in the plasma ([1]; after oral administration): about 7 hours

COCCCOc1cc(C[C@@H](C[C@H](N)[C@@H](O)C[C@H](C(=O)NCC(C)(C)C(N)=O)C(C)C)C(C)C)ccc1OC [Aliskiren]
Water solubility [3]: good water solubility
Half-life in the plasma ([1]; in vivo): approximately 24 hours
